Patent US8790898B2 (priority 2008, dated 2014)
Where “and” joins values, the source holds several entries; their conditions need not be identical. Identical values can stand only once. Entries after “also recorded” stand apart in the source; their conditions may differ. Like-named read-outs stand apart in the source and are kept apart here.

How the values were obtained:
[1] = tested on: CBD1 (C18K) and the Tet peptide; parameters: species or system cynomolgus macaques (Macaca fascicularis); conditions: cynomolgus monkey, in vivo
[2] = tested on: CBD1 peptide and CBD1- and CBM-based peptides; parameters: species or system BALB/c mice; conditions: mouse, in vivo
[3] = tested on: IgG antibodies in human HIV-1 positive sera; format: binding
[4] = tested on: primary HIV-1 BZ 167 isolate; format: cell-based; conditions: rabbit immune serum; dilution resulting 50% inhibition of HIV-1 infection; listed as CBD1
HIV-1 BZ 167 [5] = format: cell-based; conditions: listed as CBD1
[6] = tested on: CBD1, C13K, CBD1/A and C10M peptides and the CBD1-KLH Construct; conditions: guinea pig, in vivo
[7] = biological target: CBD1, C13K, CBD1/A and C10M peptides and the CBD1-KLH Construct (Human immunodeficiency virus type 1 group M subtype B, UniProt P04578); conditions: guinea pig, in vivo
[8] = biological target: CBD1, C13K, CBD1/A and C10M peptides and the CBD1-KLH Construct (Human immunodeficiency virus type 1 group M subtype B, UniProt P04578, E630Q/H625N/T626M); conditions: guinea pig, in vivo
[9] = tested on: CBD1 peptide specific IFN-γ spot forming cells; parameters: species or system cynomolgus macaques (Macaca fascicularis); conditions: cynomolgus monkey, in vivo
HIV-1 BZ 167 [10] = format: cell-based
CBD1 peptide = CBD1 peptide (Human immunodeficiency virus type 1 group M subtype B, UniProt P04578, E630Q/H625N/T626M); conditions: rabbits, 150 μg/injection, CFA, ten days after 5th immunization; against CBD1; reciprocal dilution giving OD450 = 0.1

C-S-L-E-Q-I-W-N-N-M-T-W-M-Q-W-D-K [C17K]
macaques that developed high antibody titers [1]: two out of the three; also recorded: one out of the three
IgG2/1gG1 ratio [2]: 0.96 and 1.15
Titer (ELISA) [2]: 256,000 and 384,000
ELISA C17K ([2]; sc): 1.94 ± 0.28
ELISA K23M ([2]; sc): <0.20
ELISA K24W ([2]; sc): <0.20
ELISA K27M ([2]; sc): 2.91 ± 0.26
ELISA K27W ([2]; sc): <0.20
ELISA K27W(G) ([2]; sc): <0.20
ELISA K30W(G) ([2]; sc): <0.20
ELISA against the Immunogen (OD) ([2]; sc): 1.22 OD
ELISA p6362 ([2]; sc): 1.78 ± 0.22
ELISA titer against C17K ([2]; sc): 1.94 ± 0.45
IgG2/IgG1 ratio ([2]; sc): 1.08
sera found to be positive in ELISA ([3]; another cohort of 75 HIV-1-positive individuals): two
titer of anti-CBD1 peptide antibodies ([3]; listed as CBD1): 6,400 and 12,800
HIV Inhibition (ID50) [4]: 250 and 200
Inhibition of HIV-infection (HIV-1 BZ 167 [5]; 50-fold dilution of guinea pig immune sera (bleeds S5), HIV-1 BZ 167, p24 at 5 days post infection): 66% and 57%
Inhibition of HIV infection (HIV-1 BZ 167 [5]; 100 fold dilution of guinea pig immune serum (bleeds S5), HIV-1 BZ 162, human CD4+ T lymphocytes): 66% and 57%
HIV Inhibition (ID50) (HIV-1 BZ 167 [5]; guinea pig immune serum, dilution resulting 50% inhibition of HIV-1 infection): 50 and <50
ELISA C13K (titer) [6]: 128,000
ELISA CBD1/A (titer) [6]: 12,000 and 16,000
ELISA KLH (titer against the CBD1-KLH construct) [6]: <200
IgG2/1gG1 ratio [6]: 4.10 and 3.75
ELISA C10M (titer) [7]: 12,000
ELISA CBD1 (titer) [8]: 128,000
Titer (ELISA) [8]: 128,000 and 96,000
immunized animals in each group that developed a significant level of T-cell response against the CBD1 epitope [9]: one out of the three
% Inhibition of HIV-1 infection at 200-fold dilution (HIV-1 BZ 167 [10]): 59%
% inhibition of HIV-1 at 200-fold dilution (HIV-1 BZ 167 [10]): 75%
HIV Inhibition (ID50) (HIV-1 BZ 167 [10]): 250 and 300
Neutralizing activity ID50 (HIV-1 BZ 167 [10]): 250-fold
Neutralizing activity ID50 Fold-Dilution (HIV-1 BZ 167 [10]): 300-fold
Titer (ELISA) (CBD1 peptide): 768,000 and 640,000
